In patent publication US8119660B2, “Small-molecule inhibitors of the androgen receptor” (The Regents of the University of California, priority 2007, dated 2012):
“Also recorded” adds a separate entry of the source. Counter-ions that a name gives are not always drawn.

Experiments:
[1] = molecular target: T1, endogenous AR with a mutation (T877A), LNCaP cells (Homo sapiens, UniProt P10275, T878A); assay: PSA-luciferase reporter assay in LNCaP cells with DHT; format: cell-based
T1 construct: that each express endogenous AR; endogenous in cells; host or cells: LNCaP
T1 sequence (P10275 1-920 T878A): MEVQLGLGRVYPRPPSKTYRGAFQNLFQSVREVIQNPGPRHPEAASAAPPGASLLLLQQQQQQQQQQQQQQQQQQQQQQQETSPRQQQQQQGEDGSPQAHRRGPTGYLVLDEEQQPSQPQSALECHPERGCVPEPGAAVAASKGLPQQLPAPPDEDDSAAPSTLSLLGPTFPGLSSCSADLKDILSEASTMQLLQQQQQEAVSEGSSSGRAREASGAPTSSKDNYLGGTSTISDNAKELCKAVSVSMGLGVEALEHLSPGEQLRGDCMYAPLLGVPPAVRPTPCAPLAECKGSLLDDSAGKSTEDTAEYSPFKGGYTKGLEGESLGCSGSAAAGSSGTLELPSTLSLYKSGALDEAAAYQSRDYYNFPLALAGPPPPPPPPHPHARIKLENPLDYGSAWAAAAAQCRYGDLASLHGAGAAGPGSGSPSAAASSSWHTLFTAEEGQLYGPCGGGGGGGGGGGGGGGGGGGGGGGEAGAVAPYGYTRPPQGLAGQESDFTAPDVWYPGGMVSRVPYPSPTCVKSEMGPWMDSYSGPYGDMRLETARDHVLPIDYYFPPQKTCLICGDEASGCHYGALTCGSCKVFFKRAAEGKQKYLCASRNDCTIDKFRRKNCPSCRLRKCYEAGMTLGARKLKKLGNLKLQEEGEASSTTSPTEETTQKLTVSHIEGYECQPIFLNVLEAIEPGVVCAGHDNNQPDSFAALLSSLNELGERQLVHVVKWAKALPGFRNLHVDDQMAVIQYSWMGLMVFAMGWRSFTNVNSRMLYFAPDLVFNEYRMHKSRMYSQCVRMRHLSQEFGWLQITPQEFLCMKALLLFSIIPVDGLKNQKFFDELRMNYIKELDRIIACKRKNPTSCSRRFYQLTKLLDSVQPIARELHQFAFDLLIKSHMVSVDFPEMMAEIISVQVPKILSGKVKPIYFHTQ
Description: Cells were transfected with two reporter plasmids, a PSA-luciferase construct (androgen responsive), and an SV40-renilla luciferase construct as an internal control. The following day, the cells were split and drugs added in the presence of 3 nM DHT. Luciferase production was measured the following day (Dual luciferase assay kit, Promega).
Synergism can be defined as a combination index of less than one, using the non-exclusive assumption described by Chou et al. (Chou, T. C. and P. Talalay, Quantitative analysis of dose-effect relationships: the combined effects of multiple drugs or enzyme inhibitors. Adv Enzyme Regul, 1984. 22: p. 27-55).

LAPC4 cells = assay: Cell proliferation (DNA content, DAPI), LAPC4; format: cell-based, human; conditions: LAPC4, 3 nM DHT, seven days; PP 100 nM, HH 100 nM, BiC 1 μM
Excerpt: LN-AR cells were created by retroviral infection of a high-expressing AR vector into LNCaP cells, and proliferate independent of androgen in cell culture, unlike their parental line (Chen, C. D., et al., Molecular determinants of resistance to antiandrogen therapy. Nat Med, 2004. 10(1): p. 33-9). HEK293 cells were used as a control. Cells were transferred to charcoal-stripped media two days before they were split and plated in quadruplicate at a density of approximately 20,000 cells/well in 48-well plates. […] Media were changed every day, using a single preparation to ensure consistent compound concentrations. Proliferation was determined by measuring the DNA content of the cells in each well. Each day, the cells in four wells were fixed in 100% cold methanol, followed by staining for 5 min at RT with 0.2 ng/mL 4′,6-diamidino-2-phenylindole (DAPI) in PBS. The cells were washed once in PBS, then read on a fluorescence plate reader using 365/439 excitation/emission wavelengths. LAPC4 and LNCaP cells proliferated to a much greater degree in the presence of DHT, while LN-AR cells proliferated in the presence and absence of DHT.

[2] = Pharmacokinetics in mice, drug levels by mass spectrometry; format: in vivo; conditions: for concentration at […]: 0.25 hr
Description: Serum samples were obtained at fixed time intervals, and the drug levels determined by mass spectrometry.

Cc1nccc2c1[nH]c1cc(O)ccc12 [HH, harmol hydrochloride]
IC50 ([1]; LNCaP cells, 3 nM DHT): 127 nM | Mode of antagonism: effect on DHT dose-response of PSA-luciferase ([1]; LNCaP, DHT titrated, moderate dose of each inhibitor, hydrochloride): inhibited maximal DHT-induced activation; also recorded: pattern consistent with a non-competitive antagonist | Inhibition of cell growth (LAPC4 cells): not effective | concentration at […] ([2]; FVB, mouse, plasma, mice, IP, 5 mg/kg single dose): 32.3 ng/mL | concentration at 1 h ([2]; FVB, mouse, plasma, mice, IP, 5 mg/kg single dose, 1 hr): 5 ng/mL | concentration at […] ([2]; FVB, mouse, plasma, mice, PO, 5 mg/kg single dose): 6.7 ng/mL | Clearance / half-life in words ([2]; Wild-type FVB mice, single intraperitoneal injection): rapidly cleared
